Results from patent publication US6676925B1, “Sigma-2 receptors as biomarkers of tumor cell proliferation” (priority 1996, dated 2004).
pKi: −log10 of the molar value.

Legend:
Sigma-2 sites = target: T1, Sigma-2 sites (Rattus norvegicus, UniProt Q5U3Y7); experiment: σ2 binding assay, [^3H]DTG in rat liver membranes in the presence of 100 nM (+)-pentazocine
T1 sequence (Q5U3Y7 1-176): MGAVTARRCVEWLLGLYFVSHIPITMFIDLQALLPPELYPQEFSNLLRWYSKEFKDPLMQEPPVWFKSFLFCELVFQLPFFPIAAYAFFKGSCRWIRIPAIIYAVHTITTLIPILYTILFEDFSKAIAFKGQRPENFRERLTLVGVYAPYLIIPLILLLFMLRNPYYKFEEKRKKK
Protocol: Assays were terminated by the addition of ice-cold 10 mM Tris-HCl, pH 8.0 followed by rapid filtration through Whatman GF/B glass fiber filters (presoaked in 0.5% polyethylenimine) using a Brandel cell harvester (Gaithersburg, Md.). Filters were then washed twice with 5 mL of ice cold buffer Nonspecific binding was determined in the presence of 5 μM DTG. Liquid scintillation counting was carried out in EcoLite(+) (ICN Radiochemicals; Costa Mesa, Calif.) using a Beckman LS 6000IC spectrometer with a counting efficiency of 50%. […] Typical counts for guinea pig brain were 16 dpm/μg protein for total binding, 2 dpm/μg protein for nonspecific binding, and 14 dpm/μg protein for specific binding.
(§1) The IC50 values at sigma sites were determined in triplicate from non-linear regression of binding data as analyzed by JMP (SAS Institute; Cary, N.C.), using 5-10 concentrations of each compound. Ki values were calculated using the Cheng-Prusoff equation and represent mean values ±SEM. All assays were done in triplicate unless otherwise noted.

Sigma-1 binding sites = Sigma-1 binding sites (Cavia porcellus, UniProt Q60492); experiment: σ1 binding assay, [^3H](+)-pentazocine in guinea pig brain membranes
Chain of Sigma-1 binding sites (Q60492 whole entry): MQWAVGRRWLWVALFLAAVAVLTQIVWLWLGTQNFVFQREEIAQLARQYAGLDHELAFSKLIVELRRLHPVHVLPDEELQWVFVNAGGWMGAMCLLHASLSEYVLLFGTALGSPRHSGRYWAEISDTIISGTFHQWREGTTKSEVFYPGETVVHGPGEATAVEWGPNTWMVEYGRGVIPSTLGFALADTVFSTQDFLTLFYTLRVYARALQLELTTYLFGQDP
Protocol: Test compounds were dissolved in ethanol (7 concentrations ranging from 1-1000 nM) then diluted in buffer for a total incubation volume of 0.5 mL. Assays were terminated by the addition of ice-cold 10 mM Tris HCl, pH 8.0 followed by rapid filtration through Whatman GF/B glass fiber filters (presoaked in 0.5% polyethylenimine) using a Brandel cell harvester (Gaithersburg, Md.). Filters were washed twice with 5 ML of ice cold buffer. Nonspecific binding was determined in the presence of 10 μM (+)-pentazocine. Liquid scintillation counting was carried out in EcoLite (+) (ICN Radiochemicals; Costa Mesa, Calif.) using a Beckman LS 6000IC spectrometer with a counting efficiency of 50%. Typical counts were 70 dpm/μg protein for total binding, 6 dpm/μg protein for nonspecific binding, and 64 dpm/μg protein for specific binding.
as §1

SMILES | pKi (Sigma-2 sites) | pKi (Sigma-1 binding sites)
CN1[C@@H]2CC[C@H]1C[C@@H](OC(=O)Nc1ccc(Cl)c(Cl)c1)C2 [Compound 2, (3-endo)-8-Methyl-8-azabicyclo[3.2.1]octyl-3-N-(3′, 4′-dichlorophenyl)-carbamate] | 7.43 | < 6.00
COc1ccc(Cl)cc1NC(=O)O[C@H]1C[C@H]2CC[C@@H](C1)N2C [Compound 3, (3-endo)-8-Methyl-8-azabicyclo[3.2.1]octyl-3-N-(2′-methoxy-5′-chloro-phenyl)-carbamate] | 6.81 | < 6.00
O=C(Nc1ccc(Cl)c(Cl)c1)O[C@H]1C[C@H]2CCC[C@@H](C1)N2Cc1ccccc1 [Compound 4, (3-endo)-9-Benzyl-9-azabicyclo[3.3.1]nonanyl-3-N-(3′, 4′-dichlorophenyl)-carbamate] | 7.04 | 7.48
COc1ccc(OC)c(NC(=O)O[C@H]2C[C@H]3CCC[C@@H](C2)N3Cc2ccccc2)c1 [Compound 5, (3-endo)-9-Benzyl-9-azabicyclo[3.3.1]nonanyl-3-N-(2′, 5′-dimethoxyphenyl)-carbamate] | 7.55 | 6.48
COc1cc(OC)c(NC(=O)O[C@H]2C[C@H]3CCC[C@@H](C2)N3Cc2ccccc2)cc1Cl [Compound 6, (3-endo)-9-Benzyl-9-azabicyclo[3.3.1]nonanyl-3-N-(5′-chloro-2′, 4′-dimethoxyphenyl)carbamate] | 7.64 | 6.72
COc1ccc(Cl)cc1NC(=O)O[C@H]1C[C@H]2CCC[C@@H](C1)N2Cc1ccccc1 [Compound 7, (3-endo)-9-Benzyl-9-azabicyclo[3.3.1]nonanyl-3-N-(5′-chloro-2′-methoxyphenyl)carbamate] | 7.20 | < 6.00
CN1[C@@H]2CCC[C@H]1C[C@@H](OC(=O)Nc1ccc(Cl)c(Cl)c1)C2 [Compound 8, (3-endo)-9-Methyl-9-azabicyclo[3.3.1]nonanyl-3-N-(3′, 4′-dichlorophenyl)-carbamate] | 7.30 | 6.23
COc1ccc(OC)c(NC(=O)O[C@H]2C[C@H]3CC[C@@H](C2)N3Cc2ccccc2)c1 [Compound 9, (3-endo)-8-Benzyl-8azabicyclo[3.2.1]octyl-3-N-(2′,5′-dimethoxyphenyl)-carbamate] | 7.66 | 7.14
O=C(Nc1ccc(Cl)c(Cl)c1)O[C@H]1C[C@H]2CC[C@@H](C1)N2Cc1ccccc1 [Compound 10, (3-endo)-8-Benzyl-8-azabicyclo[3.2.1]octyl-3-N(3′, 4′-dichlorophenyl)-carbamate] | 7.79 | 6.15
